# ChEMBL document CHEMBL1949616, “Synthesis and human telomeric G-quadruplex DNA-binding activity of glucosaminosides of shikonin/alkannin” (Bioorg Med Chem Lett, 2012)
# Active and inactive are the calls of the source. The rule behind the calls is not given here.
# Experiments:
# Assay type in all cases: nucleic-acid assay
# [1] = test system: Nucleic Acid; experiment: Binding affinity to human telomeric G-quadruplex DNA at 200 uM after 1 hr by ESI-TOF-MS analysis
# [2] = test system: Nucleic Acid; experiment: Binding affinity to human telomeric G-quadruplex DNA assessed as hypochromic effect at 10 uM at pH 7.6 by UV-Vis spectrophotometric analysis
# [3] = test system: Nucleic Acid; experiment: Binding affinity to human telomeric DNA AGGGTTAGGGT at 200 uM after 1 hr by ESI-TOF-MS analysis
# [4] = test system: Nucleic Acid; experiment: Binding affinity to human telomeric G-quadruplex DNA assessed as bathochromic shift at 10 uM at pH 7.6 by UV-Vis spectrophotometric analysis
Activity [1] [%],Activity [2] [%],Activity [3] [%],Activity [4],SMILES
58.9,,,,COc1ccc2cc3[n+](cc2c1OC)CCc1cc2c(cc1-3)OCO2
47,32.8,16,Active,CC(=O)N[C@H]1[C@H](O[C@H](CC=C(C)C)C2=CC(=O)c3c(O)ccc(O)c3C2=O)O[C@H](CO)[C@@H](O)[C@@H]1O
39.3,,,,CC(=O)N[C@H]1[C@H](O[C@@H](CC=C(C)C)C2=CC(=O)c3c(O)ccc(O)c3C2=O)O[C@H](CO)[C@@H](O)[C@@H]1O
0,,,,CC(C)=CC[C@H](O)C1=CC(=O)c2c(O)ccc(O)c2C1=O
0,,,,CC(C)=CC[C@@H](O)C1=CC(=O)c2c(O)ccc(O)c2C1=O
